Assay results reported in US20260355318A1, “MOLECULAR MACHINES FOR TREATMENT OF CANCER, FUNGAL INFECTIONS, OR BACTERIAL INFECTIONS” (priority 2022, published 2026).

Experiments:
T. rubrum = assay: Ex vivo onychomycosis porcine nail model; set-up: species or system Trichophyton rubrum on porcine nails; key to Summary of significance, fungal load: * p<0.05; ** p<0.01; *** p<0.001; **** p<0.0001; ns: non-significant; settings: for Mean rank diff. of fungal load: T. rubrum nails
Method: For microconidia preparation, T. rubrum was inoculated on potato dextrose agar containing 0.025% Sabouraud dextrose broth (SDB) and 1.0% penicillin-streptomycin. After a 10-day incubation at 28 ° C, the plates were flooded with PBS, which was then aspirated and filtered through a sterilized cotton gauze to recover microconidia (Ma et al., 2022).
An ex vivo onychomycosis model was established as previously described (Quatrin et al., 2020) with modifications. Pig hooves with exposed toenails were processed into ~1 cm^2-sized individual toenail samples with a band saw, washed with 70% ethyl alcohol and sterilized water, and inoculated with a microconidia suspension of T. rubrum (~10^7 conidia mL^−1) for 3 h. Samples were placed in a Petri dish containing moist sterilized paper and incubated at 28 ° C for 10 days. Fungal growth was confirmed by sample resuspension in PBS and plating on PDA containing 0.025% SDB and 1% penicillin-streptomycin. Infected samples were then treated with (1) 1% DMSO plus light, (2) monotherapy with MM 1 alone (0.77% in DMSO) plus light, (3) monotherapy with conventional antifungal (three drops (Quatrin et al., 2020) of Ciclopirox Topical Suspension USP, 0.77% “Lotion”, Leading Pharma, LLC, NY, USA, or Ciclopirox Topical Solution, 8% “Lacquer”, Perrigo New York Inc., NY, USA), or (4) combination therapy with MM 1 plus light and conventional antifungal. Each treatment group consisted of three samples. After 30 min, samples in the irradiated treatment groups were transferred to 24-well plates (Corning-Costar Corp., Corning, NY, USA) and irradiated with 405-nm light (87.6 J cm^−2). Treatment was repeated every 24 h for 5 days. Afterward, the samples were transferred to tubes containing PBS plus 1% penicillin-streptomycin, vortexed, and sonicated (Quatrin et al., 2020). Triplicate aliquots of this suspension were inoculated on PDA plates containing 1% penicillin-streptomycin. After a 10-day incubation at 28 ° C, CFU numbers were determined. Untreated samples served as positive controls.

C. albicans = assay: In vivo G. mellonella model, C. albicans infection (survival, fungal burden); set-up: species or system Galleria mellonella; settings: C. albicans-infected G. mellonella, 1×MIC
Method: The in vivo antifungal activity of MMs was assessed in G. mellonella (Li et al., 2013; (Slater et al., 2011). G. mellonella were acquired from a commercial supplier (rainbowmealworms.net) in their final instar larval stage. Worms of similar size (~0.3 g), responsive to touch, and displaying no signs of melanization were selected. C. albicans (~10^5 CFU mL^−1) and A. fumigatus conidia (~104 conidia mL^−1) suspensions were prepared in PBS as previously described. The fungal inoculum (5 μL) was injected into the last left proleg of the worms with a Hamilton syringe. Thirty minutes after infection, MM and/or antifungal agents (1×MIC, Table 2) diluted in sterile water were injected similarly to the right proleg. […] After 30 min, worms in the irradiated treatment groups were transferred to 24-well plates (Corning-Costar Corp., Corning, NY, USA) and irradiated with 405-nm light (87.6 J cm^−2). Worms were incubated in sterile Petri dishes at 30 ° C in the dark. Live and dead worms were scored each day for 7 days. Melanized or unresponsive worms were considered dead.
Fungal load was assessed in a separate group of similarly treated worms 48 h after infection. Only healthy larvae (four worms per treatment group) with no melanization spots were used. […] After 48 h at 30 ° C (C. albicans) or 7 days at 28 ° C (A. fumigatus), colonies were counted to determine CFU per mg of larvae.

[1] = test system: persister cells of P. aeruginosa; assay: Persister eradication, P. aeruginosa; type: cell-based, Pseudomonas aeruginosa; settings: 1×MIC, 405 nm
E. coli transcripts = assay: RNAseq of MM 1-treated E. coli; type: cell-based, Escherichia coli
Method: Three independent, well-isolated colonies of E. coli were cultured to mid-log phase in MHB media. Cells were collected and resuspended in PBS (1×) to an OD600 of ≈0.05. […] Cells were then irradiated for 5 min at 146 mW cm^−2 (43.8 J cm^−2). Bacterial cells were collected onto a 0.2 μm PES filter by low vacuum filtration. Two volumes of RNAprotect (Qiagen, Valencia, CA) were added to the cells, and the samples were then centrifuged at 5000 g for 25 min at 4 ° C to pellet cells. RNA was isolated using the RNeasy Mini Kit (Qiagen, Valencia, CA) per the manufacturer's instructions. RNA sequencing (RNAseq) and data analysis were performed by DNA Link Inc. (Seoul, Republic of Korea). RNA-Seq libraries were constructed by using TruSeq Stranded Total RNA with Ribo-Zero Plus rRNA Depletion Kit and sequenced on the Illumina NovaSeq6000 platform (Illumina, San Diego, CA) in the 100 nt, paired-end configuration. From each sample, an average of 70 million reads was obtained. For gene expression analysis, reads were trimmed with cutadapt (Magoc et al., 2013) and aligned to the reference genome of Escherichia coli str. K-12 substr. MG1655 (NC_000913) using EDGE-pro pipeline with default setting. Differential expression analysis was performed with DESeq2 in Bioconductor (Love et al., 2014). Gene annotation was performed using an in-house script based on NCBI reference annotations.

## C[C@@H]1Cc2ccc3ccccc3c2/C1=C1\c2ccccc2Sc2cc(NCCN(C)C)ccc21 [MM 1, N^1N^1-dimethyl-N^2-(9-(2-methyl-2,3-dihydro-1H-cyclopenta[a]naphthalen-1-ylidene)-9H-thioxanthen-3-yl) ethane-1,2-diamine]
T. rubrum; 1% DMSO vs treatment
  Summary of significance, fungal load: ** (** p<0.01)
  Mean rank diff. of fungal load: 28.00
T. rubrum; CPX Lacquer vs treatment
  Summary of significance, fungal load: ns
  Mean rank diff. of fungal load: 14.33
T. rubrum; CPX Lotion vs treatment
  Summary of significance, fungal load: ns
  Mean rank diff. of fungal load: 14.67
T. rubrum; Trichophyton rubrum, topical, T. rubrum, 0.77% (w/v) MM 1 + 405-nm light, vs DMSO controls, read-out: reduction of fungal burden in porcine nails
  log reduction at 7700 µg/mL: ~2
C. albicans
  time by which all worms died: ≤ 3 days
[1]
  time to reduce persister cells to limit of detection: 2 min
E. coli transcripts; 0.5×MIC
  transcripts significantly more abundant in MM-treated samples: 1362 transcripts
E. coli transcripts; 0.5×MIC, p<0.05
  transcripts with significantly different levels vs DMSO: 2694 transcripts
E. coli transcripts; MM 1 0.5×MIC versus DMSO
  transcripts significantly more abundant in DMSO controls: 1332 transcripts
E. coli transcripts; MM 1 versus DMSO
  maximum difference in transcript abundance between treatments: ≤ 5 fold
E. coli transcripts; gene argC, p<0.05, 5 min
  Transcript Fold Change, argC: 2.0
E. coli transcripts; gene argF, p<0.05, 5 min
  Transcript Fold Change, argF: 2.2
E. coli transcripts; gene argI, p<0.05, 5 min
  Transcript Fold Change, argI: 2.8
E. coli transcripts; gene artJ, p<0.05, 5 min
  Transcript Fold Change, artJ: 2.5
E. coli transcripts; gene asr, p<0.05, 5 min
  Transcript Fold Change, asr: 2.2
E. coli transcripts; gene bfd, p<0.05, 5 min
  Transcript Fold Change, bfd: 2.0
E. coli transcripts; gene cdh, p<0.05, 5 min
  Transcript Fold Change, cdh: 2.5
E. coli transcripts; gene prpB, p<0.05, 5 min
  Transcript Fold Change, prpB: 5.5
E. coli transcripts; gene prpC, p<0.05, 5 min
  Transcript Fold Change, prpC: 5.0
E. coli transcripts; gene tauA, p<0.05, 5 min
  Transcript Fold Change, tauA: 2.5
E. coli transcripts; gene tynA, p<0.05, 5 min
  Transcript Fold Change, tynA: 2.6
E. coli transcripts; gene yiaW, p<0.05, 5 min
  Transcript Fold Change, yiaW: 2.2
E. coli transcripts; gene ymdF, p<0.05, 5 min
  Transcript Fold Change, ymdF: 2.4
E. coli transcripts; gene ymgC, p<0.05, 5 min
  Transcript Fold Change, ymgC: 2.3
